# In patent US9505735B2, “Compounds for treating infectious diseases” (Whitehead Institute for Biomedical Research, priority 2012, dated 2016):
# Experiments:
# [1] = target: T1, Gwt1 (Saccharomyces cerevisiae, UniProt P47026); test: In vitro acylation assay with yeast membranes; type: biochemical, S. cerevisiae
# T1 construct: Wildtype S. cerevisiae BY4741; endogenous in cells; host or cells: S. cerevisiae BY4741 (wild type)
# T1 sequence (P47026 1-490): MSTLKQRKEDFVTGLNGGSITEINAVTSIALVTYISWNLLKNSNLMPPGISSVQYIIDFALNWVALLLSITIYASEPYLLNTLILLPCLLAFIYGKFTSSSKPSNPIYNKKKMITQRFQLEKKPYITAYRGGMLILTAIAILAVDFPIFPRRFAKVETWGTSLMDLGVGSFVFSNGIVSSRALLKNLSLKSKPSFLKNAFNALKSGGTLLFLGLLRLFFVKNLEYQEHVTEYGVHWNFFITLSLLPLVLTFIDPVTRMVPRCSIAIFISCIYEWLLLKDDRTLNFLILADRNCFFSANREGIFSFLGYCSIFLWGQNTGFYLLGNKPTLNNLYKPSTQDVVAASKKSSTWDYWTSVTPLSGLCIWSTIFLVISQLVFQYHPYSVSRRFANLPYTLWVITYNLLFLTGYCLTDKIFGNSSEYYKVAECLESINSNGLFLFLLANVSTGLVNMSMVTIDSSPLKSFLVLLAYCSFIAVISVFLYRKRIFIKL
# Experimental: Experiments were performed using a previously published protocol (Umemara, et al. (2003) J Biol Chem 278, 23639-23647) with the following modifications; UDP[^3H]GlcNAc was used instead of [^14C] and TLC plates were imaged by autoradiography. Lipid extracts were treated overnight with phosphatidylinositol-specific phospholipase C to confirm that the band identified as GlcN-(acyl)PI was resistant to cleavage (data not shown).
# Production of GPI-anchors begins on the cytoplasmic surface of the ER but is completed on the luminal side. Gwt1 (in yeast) or PIG-W (mammalian) acts at the first step on the luminal side of the ER, the acylation of glucosamine phosphatidylinositol (GlcN-PI) (FIG. 2b) (Sagane, et al. (2011) J Biol Chem 286, 14649-14658; Murakami, et al. (2003) Mol Biol Cell 14, 4285-4295). To provide direct biochemical evidence that Gwt1 is the proximal protein target of gepinacin in vitro acylation reactions were performed using yeast membrane preparations. UDP[^3H]GlcNAc was incubated with the membranes, and the resulting lipid products were recovered by chemical extraction and fractionated by silica gel thin layer chromatography (TLC). The appearance of a phospholipase-C insensitive band indicated the production of the acylated product.
# [2] = target: T1, Gwt1; test: Antifungal susceptibility testing, screening strains with plasmid-borne GWT1 (low or high copy); type: cell-based, S. cerevisiae
# Experimental: Sensitivity to gepinacin was determined in 96-well, flat bottom microtiter plates using a modification of the NCCLS broth microdilution protocol CLS M27-A3 and RPMI as culture medium. Fungi were inoculated at ˜10^3 cells per ml and incubated for 48 hours at 37° C. after which plates were sealed, shaken and the optical density read at 600 nm (OD600) on a Tecan Safire 2 plate reader. All samples were run in duplicate or triplicate and assays were repeated at least once. Results are expressed as fraction of growth in the absence of compound and the mean and standard deviation are plotted. For the mold A. terreus, inoculum was 10^4 cells per ml and plates were incubated at 35° C. for 48 hours in the dark. Plates were then visually scored as specified by CLSI document M38-A2 to determine the MIC50 and MIC80.
# Because GWT1 deletion is lethal in S. cerevisiae strain BY4741, a haploid shuttle strain was constructed in which the genomic copy of GWT1 was deleted and replaced by GWT1 on a plasmid that also encoded the URA3 gene and a G418-resistance gene. To construct this shuttle strain a gwt1Δ/GWT1 heterozygous deletion mutant was transformed with pAGGPD416-GWT1, sporulated and dissected. A colony was selected that grew on both SD-URA and G418-containing plates. PCR with the deletion specific primers (http://wwwsequence.stanford.edu/group/yeast_deletion_project/deletions3.html) was performed to confirm the GWT1 deletion. To change the source of GWT, this shuttle strain was transformed with plasmids containing GWT1 (as a control) or PIG-W and the LEU2 auxotrophy gene followed by selection for growth on SD-LEU plates. Plasmids were constructed by conventional Gateway technology using a GWT1 encoding entry vector and either pAG415GPDccdB or pAG425GPDccdB as the destination vectors. Positive colonies were selected and grown on 5-fluoroorotic acid (5-FOA)-containing plates to promote loss of the pAGGPD416-GWT1 plasmid. The colonies from this plate were then tested for return of uridine auxotrophy to confirm pAGGPD416-GWT1 loss. The PIG-W expression vector was constructed by recombination in yeast as follows. The pAG415GPDccdB vector was cut with Xho1 and Xba1 and the larger piece was gel and column purified. The coding sequence of PIG-W was PCR amplified from the entry clone so that it would have ends facilitating recombination with the cut vector. The shuttle strain was then transformed with these two DNA fragments and plated on SD-LEU plates to select for recombinants. PIG-W plasmid was isolated from the final strain and sequence verified.
# The following gepinacin analogs were tested for activity against Gwt1. Gepinacin, M3, CM2, CM4, CM6, CM7, CM8, and 857621-56-8 were available commercially. The compounds were tested using the “Antifungal Susceptibility Testing” protocol described above. Fungi tested are described in the “Fungal Strains” section above.
# An S. cerevesiae strain was generated in which the endogenous Gwt1 gene was deleted. Plasmids (either high copy or low copy) with either S. cerevesiae or human Gwt1 were introduced to produce strains bearing such plasmids expressing either S. cerevesiae or human Gwt1 from a constitutive promoter. Yeast strains were cultured in liquid media in the presence of indicated compounds. Shown in FIGS. 22A-D show the effect of the indicated compounds on growth (assessed by OD600) and viability (assessed using Bactiter Glo) of the yeast strain with high copy or low copy plasmid containing S. cerevesiae Gwt1. The compounds had no effect on strains with the human Gwt1, thus showing the compounds' sensitivity for the fungal (yeast) Gwt1 gene.
structure (smiles),measurement,setting,value
COc1ccc(NC(=O)COc2cccc(OCC(C)C)c2)cc1 [gepinacin],"acyltransferase activity, strain expressing the yeast gene",[1]; membranes of low copy plasmid strain,potently inhibited
same,acylation of GlcN-PI,"[1]; yeast membrane preparations, inactive analog at 10 μM",inhibited the acylation of GlcN-PI at low micromolar concentration
same,cell growth of the strain expressing the yeast gene (GWT1),[2],potently inhibited
